Results reported in US9085608B2, “Treatment of biofilms” (LYTIX BIOPHARMA AS, priority 2008, dated 2015).
≈ marks a conversion by molar mass, not a printed value. Residues, ends and D or L forms follow the SMILES beside them. *: point of attachment. NHPhenethyl = c1ccc(CCN*)cc1

Experiments:
51-03 S. haemolyticus = type: cell-based; details: planctonic
From the text: (§1) Minimum Inhibitory Concentration (MIC) on Planctonic Bacteria

PIA 90 S. aureus = type: cell-based; details: planctonic
From the text: as §1

8-16 S. epidermidis = type: cell-based; details: planctonic
From the text: as §1

42-77 S. epidermidis = type: cell-based; details: planctonic
From the text: as §1

51-07 S. haemolyticus = type: cell-based; details: planctonic
From the text: as §1

PIA 9 S. aureus = type: cell-based; details: planctonic
From the text: as §1

PIA 90 S. aureus biofilm = test: MBIC, biofilm survival rate by Alamar blue, Example 3; type: cell-based; details: 24 h
Experimental: (§2) Biofilm formation was induced in 96-well flat bottom microtitre plates (Nunclon Surface, NUNC). First, overnight cultures were diluted 1:100 in MHIIB (S. epidermidis and S. haemolyticus) or tryptic soy broth (TSB) with 5% glucose and 5% NaCl (S. aureus). […] of this bacterial suspension (10^7 cfu/ml) was added to each well and incubated for 24 h at 37° C. After 24 h the wells were carefully washed twice with phosphate-buffered saline (PBS) to remove planktonic bacteria. The washing procedure was carefully evaluated by measuring metabolic activity of the PBS with the Alamar blue method, described in detail below.
(§3) The washed biofilms were subjected to treatment with the Compounds at different concentrations.
(§4) Trifluoroacetate salts of the compounds were dissolved in sterile water and diluted to 5 mg/L, 50 mg/L and 500 mg/L in MHIIB. […] of the Compounds, in different concentrations, were added to each well and incubated for 24 h at 37° C. Positive controls were untreated biofilms only added 200 MHIIB. Negative controls were only 200 μl MHIIB, with no bacteria added.
(§5) The metabolic activity of the biofilm was quantified with a slightly modified method previously described by Pettit et al. Antimicrob. Agents Chemother. 2005; 49: 2612-7. Briefly, after the 24 h incubation with antimicrobial agents the wells were again washed twice with PBS and then added […] MHIIB with 5% Alamar blue (AB; Biosource, Camarillo, Calif., USA). AB is a redox indicator which both fluoresces and changes colour in response to chemical reduction. The extent of reduction is a reflection of bacterial cell viability. After 1 h incubation at 37° C., absorbance was recorded at 570 and 600 nm using Versamax tuneable microplate reader (Molecular Devices, Sunnyvale, Calif., USA). All assays were performed 3 times with 8 parallels. The highest and lowest value of each run was excluded from the analyses, and the remaining 18 values were averaged.

[1] = test system: 51-03 S. haemolyticus biofilm; test: as above; type: cell-based; details: 24 h
Experimental: as §2, §3, §4, §5

[2] = test system: 8-16 S. epidermidis biofilm; test: as above; type: cell-based; details: 24 h
Experimental: as §2, §3, §4, §5

[3] = test system: 42-77 S. epidermidis biofilm; test: as above; type: cell-based; details: 24 h
Experimental: as §2, §3, §4, §5

PIA 9 S. aureus biofilm = test: as above; type: cell-based; details: 24 h
Experimental: as §2, §3, §4, §5

[4] = test system: 51-07 S. haemolyticus biofilm; test: as above; type: cell-based; details: 24 h
Experimental: as §2, §3, §4, §5

[5] = test system: Staphylococcus aureus PIA90; test: microbe, parasite or virus in culture
Experimental: (§6) Bacteria were grown overnight at 37° C. in cation adjusted Mueller-Hinton II Broth (MHIIB).
(§7) We determined the MICs of oxacillin, gentamicin, tetracycline, vancomycin and linezolid using E-test (AB Biodisk, Solna, Sweden) and MICs of rifampicin using broth microdilution assay. Breakpoints were interpreted according to EUCAST criteria. […] All 3 SAMPs are tripeptides with two arginine residues providing their cationic moieties (FIG. 1). The lipophilic bulk is provided by a modified tryptophane derivate. […] The molecular weights of the SAMPs are in the range of 700-800 Dalton.

[6] = test system: Staphylococcus haemolyticus TUH 51-03; test: microbe, parasite or virus in culture
Experimental: as §6, §7

[7] = test system: Staphylococcus epidermidis TUH 08-16; test: microbe, parasite or virus in culture
Experimental: as §6, §7

[8] = test system: Staphylococcus aureus PIA 9; test: microbe, parasite or virus in culture
Experimental: as §6, §7

[9] = test system: Staphylococcus epidermidis RP62A ATCC 35984; test: microbe, parasite or virus in culture
Experimental: as §6, §7

[10] = test system: Staphylococcus haemolyticus TUH 51-07; test: microbe, parasite or virus in culture
Experimental: as §6, §7

[11] = test system: six staphylococcal strains (2 S. epidermidis, 2 S. haemolyticus and 2 S. aureus); test: Susceptibility testing under planktonic growth condition, EUCAST breakpoints; type: cell-based; details: EUCAST criteria
Experimental: The six staphylococcal strains (2 S. epidermidis, 2 S. haemolyticus and 2 S. aureus) used in this study were selected based on their previously known biofilm forming capacity (Table 1).
as §6
We determined the MICs of oxacillin, gentamicin, tetracycline, vancomycin and linezolid using E-test (AB Biodisk, Solna, Sweden) and MICs of rifampicin using broth microdilution assay. Breakpoints were interpreted according to EUCAST criteria. We selected 3 different SAMPs (Compounds A, B and C; Lytix Biopharma, Tromsø, Norway—see FIG. 1) based on previously known antimicrobial activities, and determined their exact MICs with broth microdilution assay. All 3 SAMPs are tripeptides with two arginine residues providing their cationic moieties (FIG. 1). The lipophilic bulk is provided by a modified tryptophane derivate. The difference between the compounds is the size of the C-terminal modification; Compound A has the smallest and Compound B has the largest C-terminal modification (FIG. 1). The molecular weights of the SAMPs are in the range of 700-800 Dalton.

[12] = planktonic, SE RP62A ATCC 35984
[13] = the four other staphylococcal strains

Q: N=C(N)NCCC[C@H](NC(=O)[C@H](Cc1c[nH]c2ccccc12)NC(=O)[C@H](Cc1c[nH]c2ccccc12)NC(=O)[C@@H](N)CCCNC(=N)N)C(=O)NCCc1ccccc1 [ME 171 B, R-W-W-R-NH-CH2CH2Ph] (H-RWWR-NHPhenethyl) was tested. Which MIC (51-03 S. haemolyticus) did it give?
A: Its MIC is 32 µg/mL (≈ 39.7 µM).

Q: What about the MIC (PIA 90 S. aureus) of the same compound?
A: The MIC was 128 µg/mL (≈ 159 µM).

Q: What about the MIC (8-16 S. epidermidis) of the same compound?
A: The MIC was 64 µg/mL (≈ 79.4 µM).

Q: And the MIC (42-77 S. epidermidis)?
A: Its MIC is 64 µg/mL (≈ 79.4 µM).

Q: And the MIC (51-07 S. haemolyticus)?
A: The MIC was 32 µg/mL (≈ 39.7 µM).

Q: What about the MIC (PIA 9 S. aureus) of the same compound?
A: The MIC was 128 µg/mL (≈ 159 µM).

Q: And the “MBIC measured as survival rate” value (PIA 90 S. aureus biofilm; 5 μg/ml)?
A: Its value is 100%.

Q: And the “MBIC measured as survival rate” value (PIA 90 S. aureus biofilm; 50 μg/ml)?
A: Its value is 80%.

Q: And the “MBIC measured as survival rate” value (PIA 90 S. aureus biofilm; 500 μg/ml)?
A: The value was 5%.

Q: What about the “MBIC measured as survival rate” value ([1]; 5 μg/ml) of the same compound?
A: Its value is 100%.

Q: What about the “MBIC measured as survival rate” value ([1]; 50 μg/ml) of the same compound?
A: The value was 8%.

Q: And the “MBIC measured as survival rate” value ([1]; 500 μg/ml)?
A: Its value is 9%.

Q: And the “MBIC measured as survival rate” value ([2]; 5 μg/ml)?
A: The value was 100%.

Q: And the “MBIC measured as survival rate” value ([2]; 50 μg/ml)?
A: The value was 70%.

Q: And the “MBIC measured as survival rate” value ([2]; 500 μg/ml)?
A: Its value is 4%.

Q: What about the “MBIC measured as survival rate” value ([3]; 5 μg/ml) of the same compound?
A: The value was 100%.

Q: And the “MBIC measured as survival rate” value ([3]; 50 μg/ml)?
A: Its value is 90%.

Q: And the “MBIC measured as survival rate” value ([3]; 500 μg/ml)?
A: The value was 10%.

Q: And the “MBIC measured as survival rate” value (PIA 9 S. aureus biofilm; 5 μg/ml)?
A: The value was 100%.

Q: And the “MBIC measured as survival rate” value (PIA 9 S. aureus biofilm; 50 μg/ml)?
A: Its value is 100%.

Q: What about the “MBIC measured as survival rate” value (PIA 9 S. aureus biofilm; 500 μg/ml) of the same compound?
A: Its value is 90%.

Q: What about the “MBIC measured as survival rate” value ([4]; 5 μg/ml) of the same compound?
A: The value was 100%.

Q: What about the “MBIC measured as survival rate” value ([4]; 50 μg/ml) of the same compound?
A: The value was 60%.

Q: And the “MBIC measured as survival rate” value ([4]; 500 μg/ml)?
A: Its value is 12%.

Q: With Cc1onc(-c2ccccc2)c1C(=O)N[C@@H]1C(=O)N2[C@@H]1SC(C)(C)[C@@H]2C(=O)O [OXA, oxacillin] as the compound, how does the MIC ([5]; planktonic, SA PIA90) read?
A: Its MIC is 1 µg/mL (≈ 2.49 µM).

Q: And the MIC ([6]; planktonic, SH TUH 51-03)?
A: The MIC was >256 µg/mL.

Q: And the MIC ([7]; planktonic, SE TUH 08-16)?
A: The MIC was 16 µg/mL (≈ 39.9 µM).

Q: And the MIC ([8]; planktonic, SA PIA 9)?
A: The MIC was 1 µg/mL (≈ 2.49 µM).

Q: And the MIC [9, 12]?
A: Its MIC is 8 µg/mL (≈ 19.9 µM).

Q: And the MIC ([10]; planktonic, SH TUH 51-07)?
A: Its MIC is >256 µg/mL.

Q: What about the “susceptibility under planktonic growth” value [11, 13] of the same compound?
A: The value was “resistant”.

Q: And the “susceptibility under planktonic growth” value ([11]; the two S. aureus strains)?
A: The value was “susceptible”.

Q: Which results are given for CO[C@H]1/C=C/O[C@@]2(C)Oc3c(C)c(O)c4c(O)c(c(/C=N/N5CCN(C)CC5)c(O)c4c3C2=O)NC(=O)/C(C)=C\C=C\[C@H](C)[C@H](O)[C@@H](C)[C@@H](O)[C@@H](C)[C@H](OC(C)=O)[C@@H]1C [RIF, rifampicin]?
A: MIC ([5]; Staphylococcus aureus, PIA90): 0.016 µg/mL (≈ 0.0194 µM); MIC ([6]; Staphylococcus haemolyticus, TUH5103): < 0.016 µg/mL; MIC ([7]; Staphylococcus epidermidis, TUH0816): 0.016 µg/mL (≈ 0.0194 µM); MIC ([8]; Staphylococcus aureus, PIA9): < 0.016 µg/mL; MIC ([9]; Staphylococcus epidermidis, ATCC35984): < 0.016 µg/mL; MIC ([10]; Staphylococcus haemolyticus, TUH5107): 0.016 µg/mL (≈ 0.0194 µM)

Q: gentamicin was tested. Which MIC ([5]; planktonic, SA PIA90) did it give?
A: The MIC was 0.5 µg/mL.

Q: What about the MIC ([6]; planktonic, SH TUH 51-03) of the same compound?
A: The MIC was 64 µg/mL.

Q: What about the MIC ([7]; planktonic, SE TUH 08-16) of the same compound?
A: Its MIC is 256 µg/mL.

Q: What about the MIC ([8]; planktonic, SA PIA 9) of the same compound?
A: The MIC was 1 µg/mL.

Q: What about the MIC [9, 12] of the same compound?
A: The MIC was 8 µg/mL.

Q: And the MIC ([10]; planktonic, SH TUH 51-07)?
A: Its MIC is 64 µg/mL.

Q: And the “susceptibility under planktonic growth” value [11, 13]?
A: The value was “resistant”.

Q: What about the “susceptibility under planktonic growth” value ([11]; the two S. aureus strains) of the same compound?
A: The value was “susceptible”.
